Laboratory results published in patent publication US12071392B2, “Aminoadamantyl nitrate compounds and their use to treat CNS disorders” (Panorama Research, Inc., priority 2017, dated 2024).
Where two headings read alike, the source gives them in different places.

Legend:
[1] = molecular target: T1, NMDA glutamate receptors NR1/NR2B encoded by the human GRIN1 and GRIN2B genes (Homo sapiens, UniProt Q05586+Q13224); experiment: IonWorks Barracuda automated patch clamp, inhibition of NR1/NR2B receptors in HEK293 cells; format: cell-based; conditions: for IC50: co-application with EC50 L-glutamate, −40 mV, 8-point concentration-response; for Effect on NR1/NR2B glutamate receptors (in words): patch clamp
T1 construct: expressed in transfected cells
T1 sequence (Q13224 27-1484, other chains not shown): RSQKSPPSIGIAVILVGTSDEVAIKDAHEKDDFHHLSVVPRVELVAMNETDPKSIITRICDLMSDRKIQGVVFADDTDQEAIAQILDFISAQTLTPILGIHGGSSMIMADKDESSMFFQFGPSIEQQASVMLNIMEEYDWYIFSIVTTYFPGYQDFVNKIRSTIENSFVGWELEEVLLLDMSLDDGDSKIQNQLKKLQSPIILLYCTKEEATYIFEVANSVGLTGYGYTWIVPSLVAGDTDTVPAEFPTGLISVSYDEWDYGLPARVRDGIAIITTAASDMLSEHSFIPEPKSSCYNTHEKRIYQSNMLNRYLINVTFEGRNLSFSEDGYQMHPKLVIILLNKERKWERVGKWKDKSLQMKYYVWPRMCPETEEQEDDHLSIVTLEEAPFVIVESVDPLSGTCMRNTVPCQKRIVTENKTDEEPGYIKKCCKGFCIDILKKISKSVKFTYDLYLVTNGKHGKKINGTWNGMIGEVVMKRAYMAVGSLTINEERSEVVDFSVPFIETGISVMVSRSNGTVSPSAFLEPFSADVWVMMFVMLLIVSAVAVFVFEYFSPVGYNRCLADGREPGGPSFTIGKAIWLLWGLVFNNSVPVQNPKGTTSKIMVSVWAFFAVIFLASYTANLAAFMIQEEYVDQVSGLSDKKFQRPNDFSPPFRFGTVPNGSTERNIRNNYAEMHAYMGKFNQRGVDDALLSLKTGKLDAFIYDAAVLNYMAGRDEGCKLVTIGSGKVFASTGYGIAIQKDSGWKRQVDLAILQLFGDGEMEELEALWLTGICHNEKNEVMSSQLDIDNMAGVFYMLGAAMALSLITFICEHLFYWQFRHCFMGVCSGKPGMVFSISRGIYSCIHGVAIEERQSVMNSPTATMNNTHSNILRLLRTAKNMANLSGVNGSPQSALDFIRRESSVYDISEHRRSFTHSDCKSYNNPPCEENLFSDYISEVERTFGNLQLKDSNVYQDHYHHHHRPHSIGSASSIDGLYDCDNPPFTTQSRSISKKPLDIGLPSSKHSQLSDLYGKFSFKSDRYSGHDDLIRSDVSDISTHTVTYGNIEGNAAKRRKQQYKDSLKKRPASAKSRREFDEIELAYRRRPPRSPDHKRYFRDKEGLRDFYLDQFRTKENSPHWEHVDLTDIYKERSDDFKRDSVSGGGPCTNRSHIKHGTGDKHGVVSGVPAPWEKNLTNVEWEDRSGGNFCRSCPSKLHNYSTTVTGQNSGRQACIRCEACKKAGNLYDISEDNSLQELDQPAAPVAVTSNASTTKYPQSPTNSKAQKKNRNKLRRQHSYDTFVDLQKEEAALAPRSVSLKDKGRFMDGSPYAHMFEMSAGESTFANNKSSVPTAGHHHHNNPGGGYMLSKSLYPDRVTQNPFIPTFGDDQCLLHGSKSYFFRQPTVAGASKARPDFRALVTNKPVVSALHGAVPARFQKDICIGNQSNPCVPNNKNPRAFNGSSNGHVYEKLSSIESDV
Procedure: Compounds were tested for inhibition of NMDA receptors using NMDA glutamate receptors NR1/NR2B encoded by the human GRIN1 and GRIN2B genes, expressed in HEK293 cells (originally from ATCC, Manassas, VA). Cells were maintained in tissue culture incubators, and stocks were maintained in cryogenic storage. Cells used for electrophysiology were plated in 150-mm plastic culture dishes. HEK293 cells were transfected with the appropriate ion channel or receptor cDNA(s) encoding NR1 and NR2B. Stable transfectants were selected using the G418 and Zeocin™-resistance genes incorporated into the expression plasmid. Selection pressure was maintained with G418 and Zeocin™ in the culture medium. Cells were cultured in Dulbecco's Modified Eagle Medium/Nutrient Mixture F-12 (D-MEM/F-12) supplemented with 10% fetal bovine serum, 100 U/mL penicillin G sodium, 100 μg/mL streptomycin sulfate, 100 μg/mL Zeocin™, 5 μg/mL blasticidin, and 500 μg/mL G418.
Test compounds were evaluated in 8-point concentration-response format (8 replicate wells/concentration). All test and control solutions contained 0.3% DMSO. The test article formulations were loaded in a 384-well plate using an automated liquid handling system (SciClone ALH3000, Caliper LifeScienses).
The effects of the test compounds were evaluated using the IonWorks® Barracuda™ Automated Patch Clamp System. Intracellular solution contained 50 mM CsCl, 90 mM CsF, 2 mM MgCl2, 5 mM EGTA, and 10 mM HEPES, pH 7.2. This solution was prepared in batches and stored refrigerated. In preparation for a recording session, the intracellular solution was loaded into the intracellular compartment of the PPC planar electrode. Extracellular solution (137 mM NaCl; 1.0 mM KCl; 5 mM CaCl2); 10 mM HEPES; 10 mM glucose; pH 7.4. Patch clamp measurements were made with a holding potential of −70 mV, and the potential during compound application was −40 mV. Extracellular buffer was loaded into the PPC plate wells (11 μL per well). Cell suspension was then pipetted into the wells (9 μL per well) of the PPC planar electrode. Whole-cell recording configuration was established via patch perforation with membrane currents recorded by on-board patch clamp amplifiers. […] The application consisted of two additions of 20 μL test solution containing antagonists at 10 μL/s (2 second total application time). First addition of 2× concentrated articles were preapplied for 5 minutes before the second addition of 1× concentrated articles. Data acquisition was performed via the IonWorks® Barracuda™ software, and data was analyzed using Microsoft Excel (Microsoft Corp., Redmond, WA). Concentration-response data was fitted to a Hill equation of the following form: RESPONSE=Base+[(Max−Base)/(1+(xhalf/x)^rate)] where Base is the response at low concentrations of test article, Max is the maximum response at high concentrations, xhalf is the EC50, or IC50, the concentration of test article producing either half-maximal activation or inhibition, and rate is the Hill coefficient. Nonlinear least squares fits were made assuming a simple binding model. Fits were weighted by the standard deviation. No assumptions about the fit parameters were made; the fit parameters were determined by the algorithm.

[2] = 7 days of infusion, cited from earlier work
[3] = read-out: Steady state current IC50

IC50 ([1]; read-out: Peak current IC50)	IC50 [1, 3]	Compound	Effect on NR1/NR2B glutamate receptors (in words) [1]	whole brain concentration higher than free concentration in serum ([2]; 100 mg/kg/day)	whole brain concentration higher than free concentration in serum ([2]; 20 mg/kg/day)
10.1 µM	6.8 µM	CCC12CC3(N)CC(CC)(C1)CC(O[N+](=O)[O-])(C3)C2 [YQW-036, Nitrosynapsin, reference compound]			
25.9 µM	21 µM	CCC12CC3CC(N)(C1)CC(CO[N+](=O)[O-])(C3)C2 (stereo not drawn) [NM-004, reference compound]			
4.59 µM	2.62 µM	CC12CC3(C)CC(CN)(C1)CC(CO[N+](=O)[O-])(C2)C3 [Cmpd 1]			
11.2 µM	7.18 µM	CC12CC3CC(CN)(C1)CC(O[N+](=O)[O-])(C3)C2 (stereo not drawn) [Cmpd 5]			
8.01 µM	5.08 µM	CCC(O[N+](=O)[O-])C12CC3(C)CC(C)(CC(CCN)(C3)C1)C2 (stereo not drawn) [Cmpd 3]			

Second part, the compound before the results:

Compound	IC50 ([1]; read-out: Peak current IC50)	IC50 [1, 3]	Effect on NR1/NR2B glutamate receptors (in words) [1]	whole brain concentration higher than free concentration in serum ([2]; 100 mg/kg/day)	whole brain concentration higher than free concentration in serum ([2]; 20 mg/kg/day)
NCC1(c2cccc(O[N+](=O)[O-])c2)C2CC3CC(C2)CC1C3 (stereo not drawn) [Cmpd 2]	73.2 µM	47.4 µM			
NCC1(c2cccc(OCCCO[N+](=O)[O-])c2)C2CC3CC(C2)CC1C3 (stereo not drawn) [Cmpd 4]	35.2 µM	34.2 µM			
N[C@@H](CCC(=O)O)C(=O)O [Glutamate CRC, L-glutamate, reference compound]			stimulated the receptors		
NC12CC3CC(CC(C3)C1)C2 [amantadine]				16 fold	
CC12CC3CC(C)(C1)CC(N)(C3)C2.Cl [Memantine-HCl, Memantine, reference compound]			produced inhibition of the receptors		44 fold
